Earlier results, collected in patent US20160015722A1, “TREATMENT OF ENDOMETRIOSIS” (priority 2014, published 2016).

System: FSH (Follicle Stimulating Hormone) and LH (Leutinizing Hormone) release from the pituitary
Conditions: for FSH and LH release from the pituitary gland: previous hormonal treatments of endometriosis

Molecule | FSH and LH release from the pituitary (nandrolone used alone) | FSH and LH release from the pituitary gland
C[C@]12CC[C@H]3[C@@H](CCC4=CC(=O)CC[C@@H]43)[C@@H]1CC[C@@H]2O [Nandrolone, nandrolone] | suppresses | –
C#C[C@]1(O)CC[C@H]2[C@@H]3CCC4=Cc5oncc5C[C@]4(C)[C@H]3CC[C@@]21C [danazol] | – | suppress
luprolide acetate | – | suppress
